The target of one assay is T1, BAZ2B (Homo sapiens, UniProt Q9UIF8).
T1 sequence (Q9UIF8 2060-2164 limits assumed): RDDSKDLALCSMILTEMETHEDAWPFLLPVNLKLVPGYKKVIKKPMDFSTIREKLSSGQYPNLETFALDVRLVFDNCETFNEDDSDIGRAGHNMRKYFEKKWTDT
Kind of assay: BROMOscan ligand-binding assay. The conditions noted are these: BAZ2B.

A further assay addresses BRD2(1,2) (Homo sapiens, UniProt P25440). In words: BROMOscan ligand-binding assay. The conditions noted are these: BRD2(1,2).
The target of the next assay is PBRM1(2) (Homo sapiens, UniProt Q86U86). Kind of assay: BROMOscan ligand-binding assay.
In another assay the target is WDR9(2) (Homo sapiens, UniProt Q9NSI6). Kind of assay: BROMOscan ligand-binding assay.
The target in another assay is T2, DNMT1 (Homo sapiens, UniProt P26358).
T2 construct: purchased DiscoverX BROMOscan (bromodomains); SGC in-house methyltransferase panel
Kind of assay: Methyl transferase scintillation proximity assay. Format: biochemical. The conditions noted are these: average of two measurements; for inhibition at 10 µM: read-out: MTases Inhibition (%). A digest of the protocol: (§1)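 Scintillation proximity format using ^3H-SAM as methyl donor; substrate biotinylated. Levels of both near apparent Km. Activity expressed relative to compound-free (100%) and enzyme-free (0%) counts.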
Background: SPA uses beads or plates that emit light when radiolabelled molecules are held near them.

The target of the next assay is T3, DNMT3A/3L (Homo sapiens, UniProt Q9Y6K1).
T3 construct: purchased DiscoverX BROMOscan (bromodomains); SGC in-house methyltransferase panel
Kind of assay: Methyl transferase scintillation proximity assay. Format: biochemical. The conditions noted are these: average of two measurements; for inhibition at 10 µM: read-out: MTases Inhibition (%). A digest of the protocol: as §1

The target of the next assay is T4, MLL1 (Trimeric) (Homo sapiens, UniProt Q03164).
T4 construct: purchased DiscoverX BROMOscan (bromodomains); SGC in-house methyltransferase panel
Kind of assay: Methyl transferase scintillation proximity assay. The assay is classed as biochemical. The conditions noted are these: average of two measurements; for inhibition at 10 µM: read-out: MTases Inhibition (%). A digest of the protocol: as §1

The target of a further assay is T5, NSD3 (Homo sapiens, UniProt Q9BZ95).
T5 construct: purchased DiscoverX BROMOscan (bromodomains); SGC in-house methyltransferase panel
T5 sequence (Q9BZ95 1-1437): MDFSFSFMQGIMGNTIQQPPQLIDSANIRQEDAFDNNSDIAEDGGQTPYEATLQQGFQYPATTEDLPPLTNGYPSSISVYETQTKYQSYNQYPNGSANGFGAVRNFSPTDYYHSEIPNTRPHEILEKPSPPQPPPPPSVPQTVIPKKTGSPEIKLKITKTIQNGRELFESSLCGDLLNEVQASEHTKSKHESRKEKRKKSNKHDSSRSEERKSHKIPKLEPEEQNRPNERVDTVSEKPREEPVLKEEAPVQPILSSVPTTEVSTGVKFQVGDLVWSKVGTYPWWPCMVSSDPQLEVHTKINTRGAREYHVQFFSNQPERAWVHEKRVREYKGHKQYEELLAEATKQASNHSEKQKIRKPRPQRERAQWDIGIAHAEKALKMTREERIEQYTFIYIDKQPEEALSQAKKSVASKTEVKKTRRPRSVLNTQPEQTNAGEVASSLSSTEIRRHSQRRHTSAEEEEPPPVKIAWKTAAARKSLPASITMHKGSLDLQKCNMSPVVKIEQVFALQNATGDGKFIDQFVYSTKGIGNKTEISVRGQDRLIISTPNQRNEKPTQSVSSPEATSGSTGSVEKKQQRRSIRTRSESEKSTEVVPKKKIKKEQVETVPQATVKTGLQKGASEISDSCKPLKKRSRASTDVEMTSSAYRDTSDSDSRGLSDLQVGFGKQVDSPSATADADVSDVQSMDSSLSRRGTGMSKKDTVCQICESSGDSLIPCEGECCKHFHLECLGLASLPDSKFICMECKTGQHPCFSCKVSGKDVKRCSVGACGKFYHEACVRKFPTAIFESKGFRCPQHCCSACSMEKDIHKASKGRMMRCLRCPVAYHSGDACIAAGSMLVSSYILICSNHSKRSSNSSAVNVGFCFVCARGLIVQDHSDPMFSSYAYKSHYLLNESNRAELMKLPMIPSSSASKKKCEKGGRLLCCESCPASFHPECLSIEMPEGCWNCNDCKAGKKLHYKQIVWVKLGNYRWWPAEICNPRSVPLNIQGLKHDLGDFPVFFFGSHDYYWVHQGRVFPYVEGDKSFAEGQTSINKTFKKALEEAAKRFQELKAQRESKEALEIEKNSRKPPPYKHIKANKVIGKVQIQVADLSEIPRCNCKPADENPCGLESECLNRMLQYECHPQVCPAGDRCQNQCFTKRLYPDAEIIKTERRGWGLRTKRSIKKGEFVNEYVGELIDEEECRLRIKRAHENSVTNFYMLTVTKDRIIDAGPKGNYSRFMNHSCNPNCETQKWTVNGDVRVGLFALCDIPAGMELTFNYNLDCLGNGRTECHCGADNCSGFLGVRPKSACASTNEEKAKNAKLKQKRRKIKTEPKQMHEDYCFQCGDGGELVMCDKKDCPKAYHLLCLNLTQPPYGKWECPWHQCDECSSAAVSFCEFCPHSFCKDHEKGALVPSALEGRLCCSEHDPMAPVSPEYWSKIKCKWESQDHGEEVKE
Kind of assay: Methyl transferase scintillation proximity assay. The assay is classed as biochemical. The conditions noted are these: average of two measurements; for inhibition at 10 µM: read-out: MTases Inhibition (%). A digest of the protocol:
as §1

In another assay the target is T6, SETD7 (Homo sapiens, UniProt Q8WTS6).
T6 construct: purchased DiscoverX BROMOscan (bromodomains); SGC in-house methyltransferase panel
T6 sequence (Q8WTS6 1-366): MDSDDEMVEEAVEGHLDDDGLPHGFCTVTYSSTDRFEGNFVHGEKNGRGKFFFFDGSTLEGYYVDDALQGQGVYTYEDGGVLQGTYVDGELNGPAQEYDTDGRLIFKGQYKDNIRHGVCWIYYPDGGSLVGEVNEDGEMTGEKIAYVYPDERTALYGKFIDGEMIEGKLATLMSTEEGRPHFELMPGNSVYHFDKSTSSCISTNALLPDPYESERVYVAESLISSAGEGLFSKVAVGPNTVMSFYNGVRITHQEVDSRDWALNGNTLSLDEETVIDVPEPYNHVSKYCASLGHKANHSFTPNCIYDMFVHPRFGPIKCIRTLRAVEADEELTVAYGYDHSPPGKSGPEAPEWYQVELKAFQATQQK
Kind of assay: Methyl transferase scintillation proximity assay. The assay is classed as biochemical. The conditions noted are these: average of two measurements; for inhibition at 10 µM: read-out: MTases Inhibition (%). A digest of the protocol: as §1

For another assay, the target named is T7, SETDB1 (Homo sapiens, UniProt Q15047).
T7 construct: purchased DiscoverX BROMOscan (bromodomains); SGC in-house methyltransferase panel
Kind of assay: Methyl transferase scintillation proximity assay. The assay is classed as biochemical. The settings on record: average of two measurements; for inhibition at 10 µM: read-out: MTases Inhibition (%). A digest of the protocol:
as §1

A further assay deals with BRD4(fl) (Homo sapiens, UniProt O60885). In words: BROMOscan ligand-binding assay. The conditions noted are these: BRD4(full-length,short-iso.).
[1] abbreviates: read-out: KD (BROMOscan), sheet prints no unit (nM).

Like-named read-outs stand apart in the source and are kept apart here.

We go through nine compounds from article PMC6478789, “A chemical toolbox for the study of bromodomains and epigenetic signaling” (Nature Communications, 2019).

T2 sequence (P26358 whole entry): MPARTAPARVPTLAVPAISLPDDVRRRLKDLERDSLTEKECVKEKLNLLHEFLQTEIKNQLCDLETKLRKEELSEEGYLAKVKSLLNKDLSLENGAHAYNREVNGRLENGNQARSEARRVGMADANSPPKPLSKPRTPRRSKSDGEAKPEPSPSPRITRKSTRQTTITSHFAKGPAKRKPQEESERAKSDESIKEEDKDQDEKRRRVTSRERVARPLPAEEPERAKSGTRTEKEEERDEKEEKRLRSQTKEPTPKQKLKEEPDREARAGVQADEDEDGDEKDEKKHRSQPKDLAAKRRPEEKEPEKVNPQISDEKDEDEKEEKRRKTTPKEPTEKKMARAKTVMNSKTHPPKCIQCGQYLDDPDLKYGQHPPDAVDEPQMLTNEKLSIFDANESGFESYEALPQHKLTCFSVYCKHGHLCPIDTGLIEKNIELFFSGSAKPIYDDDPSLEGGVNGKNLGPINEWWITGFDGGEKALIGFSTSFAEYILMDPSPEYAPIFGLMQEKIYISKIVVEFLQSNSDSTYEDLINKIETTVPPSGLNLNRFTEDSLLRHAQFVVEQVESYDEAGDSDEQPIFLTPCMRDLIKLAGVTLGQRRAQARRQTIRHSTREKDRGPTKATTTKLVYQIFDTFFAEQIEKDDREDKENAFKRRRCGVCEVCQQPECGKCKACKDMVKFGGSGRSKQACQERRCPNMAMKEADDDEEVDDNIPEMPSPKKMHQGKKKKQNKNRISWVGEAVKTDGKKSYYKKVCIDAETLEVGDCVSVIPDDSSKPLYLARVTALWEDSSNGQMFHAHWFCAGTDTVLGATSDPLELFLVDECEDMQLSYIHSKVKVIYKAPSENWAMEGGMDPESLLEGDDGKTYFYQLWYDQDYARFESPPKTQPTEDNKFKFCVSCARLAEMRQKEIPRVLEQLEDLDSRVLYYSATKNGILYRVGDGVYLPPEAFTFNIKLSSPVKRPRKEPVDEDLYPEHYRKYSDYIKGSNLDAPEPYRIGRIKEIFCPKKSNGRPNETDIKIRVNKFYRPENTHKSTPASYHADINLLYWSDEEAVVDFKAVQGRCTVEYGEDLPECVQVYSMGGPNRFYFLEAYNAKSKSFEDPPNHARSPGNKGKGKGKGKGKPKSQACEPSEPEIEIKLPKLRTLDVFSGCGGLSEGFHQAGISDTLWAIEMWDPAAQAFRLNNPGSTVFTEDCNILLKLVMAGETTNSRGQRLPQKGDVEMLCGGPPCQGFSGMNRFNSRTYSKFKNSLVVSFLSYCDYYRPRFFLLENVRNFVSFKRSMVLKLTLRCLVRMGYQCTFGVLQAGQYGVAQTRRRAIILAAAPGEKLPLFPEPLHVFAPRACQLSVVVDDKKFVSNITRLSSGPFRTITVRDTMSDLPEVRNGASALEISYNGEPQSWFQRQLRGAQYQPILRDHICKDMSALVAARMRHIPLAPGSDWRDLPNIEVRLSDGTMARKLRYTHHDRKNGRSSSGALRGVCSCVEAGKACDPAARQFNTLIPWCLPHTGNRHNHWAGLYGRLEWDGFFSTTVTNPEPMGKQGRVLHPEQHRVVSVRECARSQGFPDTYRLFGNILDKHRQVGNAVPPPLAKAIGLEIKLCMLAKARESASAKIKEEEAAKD
WDR9(2), sequence (Q9NSI6 1313-1418 limits assumed): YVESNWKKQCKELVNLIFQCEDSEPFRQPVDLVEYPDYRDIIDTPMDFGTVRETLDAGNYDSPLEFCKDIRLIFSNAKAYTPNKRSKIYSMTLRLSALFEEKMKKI
PBRM1(2), sequence (Q86U86 177-287 limits assumed): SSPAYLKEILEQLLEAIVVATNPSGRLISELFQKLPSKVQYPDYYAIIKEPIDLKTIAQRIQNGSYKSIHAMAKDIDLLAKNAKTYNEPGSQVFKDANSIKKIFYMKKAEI
BRD2(1,2), sequence (P25440 71-455 limits assumed): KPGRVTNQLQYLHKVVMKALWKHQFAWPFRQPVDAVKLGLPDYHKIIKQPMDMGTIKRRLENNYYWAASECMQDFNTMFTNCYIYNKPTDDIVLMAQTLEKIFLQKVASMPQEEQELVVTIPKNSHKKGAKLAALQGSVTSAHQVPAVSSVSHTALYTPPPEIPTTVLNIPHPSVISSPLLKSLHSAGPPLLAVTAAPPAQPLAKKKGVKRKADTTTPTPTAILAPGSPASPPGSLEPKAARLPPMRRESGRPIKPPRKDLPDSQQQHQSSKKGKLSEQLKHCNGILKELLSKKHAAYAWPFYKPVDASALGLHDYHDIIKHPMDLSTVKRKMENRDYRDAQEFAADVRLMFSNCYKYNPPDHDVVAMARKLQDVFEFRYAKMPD
T3 sequence (Q9Y6K1 whole entry, looked up): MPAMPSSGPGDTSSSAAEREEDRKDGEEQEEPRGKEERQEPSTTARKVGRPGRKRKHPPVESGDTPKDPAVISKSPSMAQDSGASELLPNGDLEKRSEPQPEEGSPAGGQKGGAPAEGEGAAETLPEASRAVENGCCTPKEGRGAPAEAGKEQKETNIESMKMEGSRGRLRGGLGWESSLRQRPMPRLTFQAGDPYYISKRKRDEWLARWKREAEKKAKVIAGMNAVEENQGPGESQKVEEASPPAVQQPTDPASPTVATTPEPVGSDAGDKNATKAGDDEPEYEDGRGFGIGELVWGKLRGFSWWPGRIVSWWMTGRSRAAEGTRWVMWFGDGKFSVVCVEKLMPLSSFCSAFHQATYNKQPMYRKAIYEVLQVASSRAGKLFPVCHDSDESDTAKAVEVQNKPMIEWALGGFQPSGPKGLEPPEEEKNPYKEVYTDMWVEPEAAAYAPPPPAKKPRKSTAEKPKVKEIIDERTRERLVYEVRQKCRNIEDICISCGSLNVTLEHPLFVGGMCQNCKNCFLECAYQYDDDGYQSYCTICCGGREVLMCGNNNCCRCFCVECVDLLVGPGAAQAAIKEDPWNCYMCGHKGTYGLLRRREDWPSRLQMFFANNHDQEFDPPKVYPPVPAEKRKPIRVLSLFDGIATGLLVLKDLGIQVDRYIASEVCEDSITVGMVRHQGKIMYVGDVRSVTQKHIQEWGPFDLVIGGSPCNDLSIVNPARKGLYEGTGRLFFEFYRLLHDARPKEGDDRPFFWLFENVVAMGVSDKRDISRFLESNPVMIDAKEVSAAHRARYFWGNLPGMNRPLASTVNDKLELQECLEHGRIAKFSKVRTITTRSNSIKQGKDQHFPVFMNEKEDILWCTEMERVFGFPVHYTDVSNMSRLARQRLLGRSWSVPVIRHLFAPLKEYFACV
T3 sequence (Q9UJW3 whole entry partner): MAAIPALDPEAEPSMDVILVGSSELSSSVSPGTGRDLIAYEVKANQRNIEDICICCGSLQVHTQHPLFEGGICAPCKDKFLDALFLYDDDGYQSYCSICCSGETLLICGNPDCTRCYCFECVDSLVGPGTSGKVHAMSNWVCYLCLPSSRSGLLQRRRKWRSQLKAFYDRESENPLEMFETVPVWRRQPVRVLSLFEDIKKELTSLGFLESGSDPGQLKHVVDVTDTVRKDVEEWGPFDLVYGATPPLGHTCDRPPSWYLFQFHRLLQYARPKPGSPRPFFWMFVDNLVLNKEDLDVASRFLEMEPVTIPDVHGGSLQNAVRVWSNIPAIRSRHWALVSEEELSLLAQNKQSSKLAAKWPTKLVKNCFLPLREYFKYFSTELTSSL
Text for BAZ2B: (§2) BROMOscan is a binding assay based on the well-known KINOMEscan technology. This assay measures the binding of a DNA-tagged bromodomain to an immobilized BRD ligand. If an inhibitor is present, it will compete with the bromodomain binding to the immobilized ligand, resulting in reduction of a quantitative PCR (qPCR) signal in a dose-dependent manner.
Text for BRD2(1,2): as §2
Text for BRD4(fl): as §2
Text for PBRM1(2): as §2
Text for WDR9(2): as §2

In general, Kd refers to the constant that tells how readily two partners part at equilibrium. As for `COc1cc2c(cc1NS(=O)(=O)c1ccc(Br)cc1C)n(C)c(=O)n2C` [OF-1], the dissociation constant Kd was 2.5 µM at BAZ2B; 5.6 µM on BRD2(1,2); greater than 50000 nM at PBRM1(2) (PBRM1(2)); greater than 30000 nM on PBRM1(2) (setting [1]); greater than 50000 nM at WDR9(2) (WDR9(2)); greater than 30000 nM on WDR9(2) (setting [1]).
As usually defined, the inhibition is the relative decrease from the control value, in per cent. With `Cc1c(NC(=O)c2cc(C(N)=O)nc3cc(F)ccc23)c(C(F)(F)F)nn1Cc1ccc(C(C)(C)C)cc1` [BAY-588], the inhibition at 10 µM on DNMT1 is 9%; at DNMT3A/3L, -1%; on MLL1 (Trimeric), 7%; at NSD3 it was -2%; at SETD7, 10%; at SETDB1, 5%.
Turning to `COc1cc(C#N)ccc1S(=O)(=O)Nc1ccc2c(c1)cc(C)c(=O)n2C` [NI 57], the dissociation constant Kd is 9.4 µM on BAZ2B; 12 µM at BRD2(1,2); 4.9 µM on BRD4(fl); greater than 50000 nM at PBRM1(2) (PBRM1(2)); greater than 50000 nM at WDR9(2) (WDR9(2)).
`Cc1c(NC(=O)c2cc(C(N)=O)nc3cc(F)ccc23)c(C(F)(F)F)nn1Cc1ccc(C#N)cc1` [BAY-876]: the inhibition at 10 µM at DNMT1 is 4%; on DNMT3A/3L, 6%; on MLL1 (Trimeric) it was 11%; on NSD3 it was 3%; at SETD7, 10%; at SETDB1, -4%.
Take `COc1ccccc1C(=O)Nc1cc2c(cc1N1CCNC[C@H]1C)n(C)c(=O)n2C` [GSK6853]: the “MTases Inhibition (%)” value at DNMT1 (10µM) is reported as -8%; at DNMT3A/3L (10µM), 13%; on MLL1 (Trimeric) (10µM), 7%; at NSD3 (10µM) it was 7%; at SETD7 (10µM), 7%; at SETDB1 (10µM), 1%.
In the case of `O=C(C=CN1[C@H]2CC[C@@H]1c1ncnc(NC3CC3)c1C2)c1ccccc1O` [PFI-3 D1], the Kd at BAZ2B (BROMOscan) is greater than 30 µM; on BRD2(1,2) (BROMOscan) it was greater than 30 µM; on BRD4(fl) (BROMOscan), greater than 30 µM; on PBRM1(2) (BROMOscan, PBRM1(2)), 170 nM; at WDR9(2) (BROMOscan, WDR9(2)), greater than 30000 nM.
Regarding `CO[C@H]1CNC[C@@H](OCC2CCC(F)(F)CC2)[C@@H]1Nc1ncc(-c2cncc(C)c2)c2cc(C)c(=O)[nH]c12` [GSK8814], the inhibition at 10 µM at DNMT1 is -3%; on DNMT3A/3L it was 8%; on MLL1 (Trimeric), 6%; at NSD3, 13%; at SETD7, 7%; at SETDB1, 1%.
Take `COc1cc(Cl)c(C(=O)N[C@@H](CN[C@H]2CC[C@@H](N)CC2)Cc2ccc(C#N)cc2)cc1-c1ccc(CN[C@H](C)c2ccc(C)cc2)o1` [BAY-850]: the inhibition at 10 µM on DNMT1 is 4%; on DNMT3A/3L, 21%; on MLL1 (Trimeric), -1%; on NSD3, 14%; on SETD7 it was 11%; on SETDB1, 8%.
Consider `CN1C[C@H](Nc2cnn(C)c(=O)c2Br)C[C@H](c2ccccc2)C1` [GSK4027], for which the inhibition at 10 µM on DNMT1 was 3%; on DNMT3A/3L it was 3%; at MLL1 (Trimeric) it was 8%; on NSD3 it was 10%; at SETD7, 12%; on SETDB1 it was -1%.
